Laboratory results taken from ChEMBL document CHEMBL1201862, “PubChem BioAssay data set” (2004).
One block for each molecule: values may come before it. Active and inactive are the calls of the source.

Key:
[1] = viability of uninfected HEp-2 cells – cell-based, HTS, cytotoxicity control for RSV inhibitor project, dose response (AID 2410); format: functional; conditions: human respiratory syncytial virus
[2] = target: T1, Calpain-2 catalytic subunit (Sus scrofa, UniProt P43367); experiment: m-calpain protease blockers, concentration series – biochemical, fluorogenic peptide substrate, dose response (AID 1420); format: functional
T1 sequence (P43367 whole entry): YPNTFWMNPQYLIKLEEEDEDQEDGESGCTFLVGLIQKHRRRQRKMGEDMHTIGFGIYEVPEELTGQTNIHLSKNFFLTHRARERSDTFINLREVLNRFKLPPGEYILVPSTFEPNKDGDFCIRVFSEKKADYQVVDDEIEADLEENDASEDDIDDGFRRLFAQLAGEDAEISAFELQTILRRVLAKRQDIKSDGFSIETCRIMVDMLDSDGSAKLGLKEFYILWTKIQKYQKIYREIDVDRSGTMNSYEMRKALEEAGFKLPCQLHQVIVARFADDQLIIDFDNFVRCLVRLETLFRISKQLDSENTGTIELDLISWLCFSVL

[3] = target: CAAX prenyl protease 1 (Saccharomyces cerevisiae S288c, UniProt P47154); experiment: yeast CAAX protease Ste24 inhibition – biochemical, S. cerevisiae, plate reader, cherry-pick, dose response (AID 488815)
[4] = target: T2, Kappa-type opioid receptor (Homo sapiens, UniProt P41145); experiment: SAR analysis of small molecule agonists of the kappa opioid receptor via a luminescent beta-arrestin assay. [Related pubchem assays (depositor defined):AID1777, AID1786, AID1966, AID2133, AID2136, AID2348, AID2352, AID2357, AID2359, AID2370, AID2420, AID2478, AID2491, AID2492, AID2493, AID2497, AID2498, AID2500, AID449737, AID488822, AID488842]; format: functional
[5] = target: T3, Mu-type opioid receptor (Homo sapiens, UniProt P35372); experiment: mu opioid receptor activators, image-based, SAR follow-up (AID 2352); format: functional
[6] = target: T4, Delta-type opioid receptor (Homo sapiens, UniProt P41143); experiment: DOR agonists, SAR follow-up, image-based (AID 2370); format: functional
[7] = target: T2, Kappa-type opioid receptor; experiment: kappa opioid receptor blockers, image-based, SAR follow-up (AID 2348); format: functional
[8] = target: T3, Mu-type opioid receptor; experiment: mu opioid receptor blockers – image-based, SAR follow-up (AID 2420); format: functional;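 also: compounds added before stimulation of receptor with agonist DAMGO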
[9] = target: T2, Kappa-type opioid receptor; experiment: kappa opioid receptor activation potency – imaging, image-based, SAR follow-up (AID 2359); format: functional
[10] = target: T4, Delta-type opioid receptor; experiment: delta opioid receptor blockers – image-based, SAR follow-up (AID 2357); format: functional
[11] = target: T5, Nucleotide-binding oligomerization domain-containing protein 1 (Homo sapiens, UniProt Q9Y239); experiment: SAR analysis of NF-kappaB dependent luciferase using DAP as an inducer - Set 2. [Related pubchem assays (depositor defined):AID1566, AID1575, AID1578, AID1579, AID1849, AID1852, AID2264]; format: functional
T5 sequence (Q9Y239 whole entry): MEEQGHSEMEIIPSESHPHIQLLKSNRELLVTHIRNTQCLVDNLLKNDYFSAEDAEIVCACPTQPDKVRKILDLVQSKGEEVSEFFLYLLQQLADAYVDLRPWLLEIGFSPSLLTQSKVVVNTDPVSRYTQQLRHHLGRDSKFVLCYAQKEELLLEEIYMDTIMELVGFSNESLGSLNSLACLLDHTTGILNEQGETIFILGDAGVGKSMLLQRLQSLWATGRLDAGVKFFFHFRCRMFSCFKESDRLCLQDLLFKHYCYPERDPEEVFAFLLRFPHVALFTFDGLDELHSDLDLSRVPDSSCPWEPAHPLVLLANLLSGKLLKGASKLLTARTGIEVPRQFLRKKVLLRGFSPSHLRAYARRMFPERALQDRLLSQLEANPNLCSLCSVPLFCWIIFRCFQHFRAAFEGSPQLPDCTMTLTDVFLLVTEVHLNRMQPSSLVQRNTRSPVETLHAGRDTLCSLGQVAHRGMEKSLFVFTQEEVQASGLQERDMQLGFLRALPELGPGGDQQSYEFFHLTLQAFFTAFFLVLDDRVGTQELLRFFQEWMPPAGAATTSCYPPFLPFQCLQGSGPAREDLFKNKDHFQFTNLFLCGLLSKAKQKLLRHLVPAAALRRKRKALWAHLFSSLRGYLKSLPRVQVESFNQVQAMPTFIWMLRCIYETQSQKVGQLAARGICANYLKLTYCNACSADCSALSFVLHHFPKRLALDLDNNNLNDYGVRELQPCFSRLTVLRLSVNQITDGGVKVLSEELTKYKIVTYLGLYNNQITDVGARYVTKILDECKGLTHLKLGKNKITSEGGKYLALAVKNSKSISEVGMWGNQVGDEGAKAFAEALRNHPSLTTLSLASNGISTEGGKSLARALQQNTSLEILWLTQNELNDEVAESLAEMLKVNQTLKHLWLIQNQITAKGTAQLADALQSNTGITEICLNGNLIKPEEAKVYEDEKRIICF

[12] = target: T6, Interleukin-8 (Homo sapiens, UniProt P10145); experiment: SAR analysis of Tumor necrosis factor alpha (TNF-alpha) induced IL-8 secretion in MCF-7/NOD1 cells - Set 2. [Related pubchem assays (depositor defined):AID1575, AID2250, AID2260]; format: functional, cell-based
T6 sequence (P10145 whole entry): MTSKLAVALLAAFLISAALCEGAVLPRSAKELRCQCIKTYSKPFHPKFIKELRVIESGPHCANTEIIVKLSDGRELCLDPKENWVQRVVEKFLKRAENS

[13] = target: T6, Interleukin-8; experiment: SAR analysis of GM-Tri-DAP induced IL-8 secretion in MCF-7/NOD1 cells - Set 2. [Related pubchem assays (depositor defined):AID1575, AID1578, AID2333]; format: functional, cell-based
[14] = target: T7, Nucleotide-binding oligomerization domain-containing protein 2 (Homo sapiens, UniProt Q9HC29); experiment: inhibition of NOD2 signaling – set 2, SAR follow-up (AID 2475); format: functional
[15] = test system: HEK293; experiment: SAR analysis of compounds that are cytotoxic to HEK293 - Set 2. [Related pubchem assays (depositor defined):AID1575, AID1578, AID1849, AID2001, AID2333, AID2334, AID2335, AID2337, AID2800]; format: functional, cell-based; conditions: Homo sapiens
[16] = target: T5, Nucleotide-binding oligomerization domain-containing protein 1; experiment: SAR analysis of compounds that inhibit NOD1 - Set 2. [Related pubchem assays (depositor defined):AID1566, AID1575, AID1578, AID1849, AID1852, AID2333, AID2335, AID2798]; format: functional
[17] = target: T5, Nucleotide-binding oligomerization domain-containing protein 1; experiment: SAR analysis of compounds that inhibit NOD1 - Set 3. [Related pubchem assays (depositor defined):AID1566, AID1575, AID1578, AID1849, AID1852, AID2333, AID2335, AID2466]; format: functional
[18] = target: Tumor necrosis factor (Homo sapiens, UniProt P01375); experiment: analog potency on TNFa NF-kB signaling – cell-based, set 3, SAR follow-up (AID 2801); format: functional
[19] = test system: HEK293; experiment: SAR analysis of compounds that are cytotoxic to HEK293 - Set 3. [Related pubchem assays (depositor defined):AID1575, AID1578, AID1848, AID1849, AID2001, AID2333, AID2334, AID2335, AID2337, AID2469]; format: functional, cell-based; conditions: Homo sapiens
[20] = target: T7, Nucleotide-binding oligomerization domain-containing protein 2; experiment: inhibition of MDP-driven NOD2 NF-kB reporter – cell-based, set 3, SAR follow-up (AID 2799); format: functional

T2 sequence (P41145 whole entry): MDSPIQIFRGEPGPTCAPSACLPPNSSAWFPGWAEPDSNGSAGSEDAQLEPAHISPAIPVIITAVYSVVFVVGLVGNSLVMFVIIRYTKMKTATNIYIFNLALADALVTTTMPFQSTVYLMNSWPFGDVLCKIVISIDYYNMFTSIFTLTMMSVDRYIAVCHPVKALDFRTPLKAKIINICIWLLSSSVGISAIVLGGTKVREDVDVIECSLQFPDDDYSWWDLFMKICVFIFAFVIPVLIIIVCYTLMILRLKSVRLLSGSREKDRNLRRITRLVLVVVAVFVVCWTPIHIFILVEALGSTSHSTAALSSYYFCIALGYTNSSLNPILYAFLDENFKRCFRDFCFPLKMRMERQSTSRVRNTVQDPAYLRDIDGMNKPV
T7 sequence (Q9HC29 whole entry, the tested form may be a part): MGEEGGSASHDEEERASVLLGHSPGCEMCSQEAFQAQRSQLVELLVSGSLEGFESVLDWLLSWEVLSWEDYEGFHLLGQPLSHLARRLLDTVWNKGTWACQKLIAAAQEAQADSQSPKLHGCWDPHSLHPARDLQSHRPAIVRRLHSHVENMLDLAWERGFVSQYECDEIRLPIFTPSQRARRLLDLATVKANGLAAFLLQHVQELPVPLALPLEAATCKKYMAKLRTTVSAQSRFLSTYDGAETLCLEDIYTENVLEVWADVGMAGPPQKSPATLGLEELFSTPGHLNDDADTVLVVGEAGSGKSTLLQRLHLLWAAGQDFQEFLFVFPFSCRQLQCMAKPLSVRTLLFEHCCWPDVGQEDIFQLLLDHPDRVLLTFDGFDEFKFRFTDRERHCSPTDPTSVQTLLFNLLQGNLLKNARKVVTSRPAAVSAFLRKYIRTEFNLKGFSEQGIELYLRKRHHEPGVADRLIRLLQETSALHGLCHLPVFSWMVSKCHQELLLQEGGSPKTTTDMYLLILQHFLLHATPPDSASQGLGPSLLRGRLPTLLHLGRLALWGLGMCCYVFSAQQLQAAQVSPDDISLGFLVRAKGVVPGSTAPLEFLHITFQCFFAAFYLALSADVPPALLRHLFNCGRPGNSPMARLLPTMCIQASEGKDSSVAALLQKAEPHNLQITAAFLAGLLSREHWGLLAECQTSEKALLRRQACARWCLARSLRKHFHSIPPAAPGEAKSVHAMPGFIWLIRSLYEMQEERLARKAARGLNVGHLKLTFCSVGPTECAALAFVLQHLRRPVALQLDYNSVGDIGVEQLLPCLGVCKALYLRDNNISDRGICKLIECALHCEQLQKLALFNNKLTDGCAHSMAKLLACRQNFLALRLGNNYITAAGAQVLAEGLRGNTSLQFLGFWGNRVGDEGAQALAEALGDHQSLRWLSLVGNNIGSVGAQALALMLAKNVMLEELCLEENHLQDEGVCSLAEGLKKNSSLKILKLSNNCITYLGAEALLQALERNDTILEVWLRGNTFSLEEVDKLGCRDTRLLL
T3 sequence (P35372 whole entry): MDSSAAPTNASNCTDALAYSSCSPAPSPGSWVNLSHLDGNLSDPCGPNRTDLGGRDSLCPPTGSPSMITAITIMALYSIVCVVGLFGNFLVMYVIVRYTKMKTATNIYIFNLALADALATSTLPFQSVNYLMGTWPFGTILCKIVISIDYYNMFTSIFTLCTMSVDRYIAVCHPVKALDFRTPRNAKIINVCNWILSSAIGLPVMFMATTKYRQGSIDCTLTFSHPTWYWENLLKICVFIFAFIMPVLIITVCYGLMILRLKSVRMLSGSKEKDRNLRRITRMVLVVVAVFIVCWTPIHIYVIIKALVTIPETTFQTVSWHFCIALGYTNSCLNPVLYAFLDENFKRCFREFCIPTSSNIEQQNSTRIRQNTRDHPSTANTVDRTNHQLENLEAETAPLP
T4 sequence (P41143 whole entry): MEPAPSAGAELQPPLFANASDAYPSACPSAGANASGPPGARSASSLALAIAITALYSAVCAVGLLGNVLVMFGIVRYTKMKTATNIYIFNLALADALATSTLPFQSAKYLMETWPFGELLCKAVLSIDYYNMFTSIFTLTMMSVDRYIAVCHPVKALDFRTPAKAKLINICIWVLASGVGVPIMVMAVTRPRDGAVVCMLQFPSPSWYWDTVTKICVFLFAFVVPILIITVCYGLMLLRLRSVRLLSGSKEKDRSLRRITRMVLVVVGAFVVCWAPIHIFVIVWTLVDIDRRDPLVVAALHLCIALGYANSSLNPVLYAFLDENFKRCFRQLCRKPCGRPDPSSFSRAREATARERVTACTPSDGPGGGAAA
Chain of CAAX prenyl protease 1 (P47154 whole entry): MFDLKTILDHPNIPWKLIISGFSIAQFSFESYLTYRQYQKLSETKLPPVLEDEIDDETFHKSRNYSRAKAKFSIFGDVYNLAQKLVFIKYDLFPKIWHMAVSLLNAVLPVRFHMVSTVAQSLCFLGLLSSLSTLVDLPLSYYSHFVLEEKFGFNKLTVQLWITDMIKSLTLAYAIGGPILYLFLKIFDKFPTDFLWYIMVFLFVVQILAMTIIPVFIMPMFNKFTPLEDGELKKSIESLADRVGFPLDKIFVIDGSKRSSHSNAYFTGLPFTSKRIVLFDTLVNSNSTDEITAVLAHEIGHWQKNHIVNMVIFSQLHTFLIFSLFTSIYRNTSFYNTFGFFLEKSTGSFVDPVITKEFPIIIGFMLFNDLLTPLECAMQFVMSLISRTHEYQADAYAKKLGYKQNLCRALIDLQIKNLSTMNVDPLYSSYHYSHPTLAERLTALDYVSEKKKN
Chain of Tumor necrosis factor (P01375 whole entry): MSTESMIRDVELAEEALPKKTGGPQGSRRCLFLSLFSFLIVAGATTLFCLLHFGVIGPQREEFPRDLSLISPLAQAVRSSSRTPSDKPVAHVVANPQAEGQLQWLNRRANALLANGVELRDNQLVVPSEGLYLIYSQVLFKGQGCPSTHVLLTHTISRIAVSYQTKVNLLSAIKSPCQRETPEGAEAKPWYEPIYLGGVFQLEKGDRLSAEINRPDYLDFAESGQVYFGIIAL

IC50 [2]: 9.54 µM (active) | AC50 [3]: > 100 µM (inactive)
SMILES: Cc1ccc(Nc2nc(-c3ccc(S(=O)(=O)N4CCOCC4)cc3)cs2)cc1Cl
CC50 [1]: 4.91 µM (active)

EC50 [4]: > 10 µM (inactive) | EC50 [5]: > 32 µM (inactive) | EC50 [6]: > 32 µM (inactive) | IC50 [7]: > 32 µM (inactive) | IC50 [8]: > 32 µM (inactive) | EC50 [9]: 18.1 µM (inactive) | IC50 [10]: > 32 µM (inactive)
SMILES: O=C(c1ccccn1)N(Cc1cc2ccccc2[nH]c1=O)C1CCCCC1

SMILES: CCCn1c(SCCc2ccccc2)nc2c1c(=O)[nH]c(=O)n2C
IC50 [11]: > 25 µM (inactive) | IC50 [12]: > 25 µM (inactive) | IC50 [13]: > 25 µM (inactive) | IC50 [14]: > 20 µM (inactive) | IC50 [15]: > 20 µM (inactive) | IC50 [16]: > 20 µM (inactive) | IC50 [17]: > 20 µM (inactive) | IC50 [18]: > 20 µM (inactive) | IC50 [19]: > 20 µM (inactive) | IC50 [20]: > 20 µM (inactive)
